In series [1] the target is T1, 3R/4R-tau aggregates in AD tissue (Homo sapiens, UniProt P10636). Nature of the series: Competition binding vs [^3H]OXD-2314 in AD tissue. The protocol: (§1) Fresh frozen, autopsy-confirmed human PD anterior cingulate cortex brain tissue blocks (1 cm^3) were obtained from Dr. Thomas Beach at Banner/Sun Health AZ with funding from the Michael J. Fox Foundation and contained frequent α-synuclein aggregates and no other detectable aggregated amyloid species. The frozen tissue blocks were prepared for the binding assays as previously described[47],[48], except that equal quantities of the homogenates of three AD brains (AD1-AD3, Table S1) were pooled, as were homogenates from three PSP brains (PSP1-PSP3), three CBD brains (CBD1-CBD3), three Pick’s brains (PiD1-PiD3), and 4 PD brains (PD1-PD4) in order to help minimize the inter-subject variability within the different neuropathological groups. Individual subcortical brain tissues from a PSP subject (PSP4) and a CBD subject (CBD4), as well as with the middle frontal cortex of a control subject, were prepared for the binding assays as previously described[47],[48].
(§2) The equilibrium inhibition constant (Ki) values of the unlabeled compounds were determined versus tritium-labeled radioligands using published methods.
Target sequence in this assay (P10636 623-758 limits assumed): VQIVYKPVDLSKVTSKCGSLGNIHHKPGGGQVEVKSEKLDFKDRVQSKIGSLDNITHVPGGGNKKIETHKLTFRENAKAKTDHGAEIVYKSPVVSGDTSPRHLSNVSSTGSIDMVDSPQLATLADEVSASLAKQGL

The target of series [2] is T2, 4R-tau aggregates in PSP tissue (Homo sapiens, UniProt P10636).
T2 construct: tissue Neurodegenerative Disease Brain Bank at UCSF
T2 sequence (P10636 1-441 isoform P10636-8): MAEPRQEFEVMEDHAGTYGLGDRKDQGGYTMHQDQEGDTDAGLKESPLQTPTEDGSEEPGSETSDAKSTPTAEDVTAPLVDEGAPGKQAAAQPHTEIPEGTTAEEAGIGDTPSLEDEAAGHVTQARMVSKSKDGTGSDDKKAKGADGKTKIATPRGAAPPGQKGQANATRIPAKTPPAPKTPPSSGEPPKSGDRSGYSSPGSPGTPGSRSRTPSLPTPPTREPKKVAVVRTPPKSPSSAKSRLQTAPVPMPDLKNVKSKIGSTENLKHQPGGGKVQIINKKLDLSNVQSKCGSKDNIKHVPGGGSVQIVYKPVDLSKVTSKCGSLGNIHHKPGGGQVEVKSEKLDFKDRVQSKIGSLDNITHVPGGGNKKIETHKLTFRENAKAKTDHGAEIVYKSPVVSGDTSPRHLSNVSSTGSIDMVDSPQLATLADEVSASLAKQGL
Nature of the series: Competition binding vs [^3H]OXD-2314 in PSP tissue. The protocol: as §1, §2

The target of series [3] is T3, 4R-tau aggregates in CBD tissue (Homo sapiens, UniProt P10636).
T3 construct: tissue Neurodegenerative Disease Brain Bank at UCSF; host or cells: human CBD brain, middle frontal gyrus (pool of three) or putamen (one subject)
T3 sequence (P10636 1-441 isoform P10636-8): as above
Nature of the series: Competition binding vs [^3H]OXD-2314 in CBD tissue. How it is done:
as §1, §2

Series [4] addresses T4, 3R-tau aggregates in PiD tissue (Homo sapiens, UniProt P10636).
T4 construct: tissue Neurodegenerative Disease Brain Bank at UCSF; host or cells: human PiD brain, middle frontal gyrus, pooled homogenate of three brains
Nature of the series: Competition binding vs [^3H]OXD-2314 in PiD tissue. The protocol:
as §1, §2

For series [5], the target named is T1, 3R/4R-tau aggregates in AD tissue. Nature of the series: Competition binding vs [^3H]OXD-2115 in AD tissue homogenates. Conditions: vs [^3H]OXD-2115, AD tissue homogenates, n = 1. The protocol: as §1, §2
Target sequence in this assay (P10636 623-695 limits assumed): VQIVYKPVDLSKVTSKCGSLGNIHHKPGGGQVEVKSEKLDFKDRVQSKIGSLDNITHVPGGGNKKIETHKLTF
Series [6] deals with T2, 4R-tau aggregates in PSP tissue. Nature of the series: Competition binding vs [^3H]OXD-2115 in PSP tissue homogenates. Conditions: vs [^3H]OXD-2115, PSP tissue homogenates, n = 1. The protocol:
as §1, §2

Series [7] can be described thus: Mouse pharmacology (DMPK): plasma and brain concentrations, brain-to-plasma ratios after i.v. administration. In kind it is in vivo, mice. Conditions: mouse, brain, iv, mice, i.v., AUC brain:plasma. The protocol:
Ex vivo evaluation of the BBB permeability of OXD-2314 was performed by measuring the brain-to-plasma ratios in mice. Compound concentrations in plasma (0.03 h, 0.17 h, 0.5 h, 1 h, and 2 h; n = 3 per timepoint) were compared with concentrations in brain (0.03 h, 0.17 h, 1 h, and 2 h; n = 3 per timepoint) for both OXD-2115 and OXD-2314. The total brain-to-plasma concentration ratios were 1.7 for OXD-2314 and 0.1 for OXD-2115. The free concentration ratio for brain-to-plasma was 0.6 for OXD-2314 and 0.002 for OXD-2115 (Figs. S3–S8 and Tables S2, S3).

Series [8] can be described thus: Baseline PET-CT imaging of [18F]OXD-2188 and [18F]OXD-2189 in rats. It is filed as in vivo, rat. Conditions: normal rats, n = 2. How it is done: In vitro characterization, radiosynthesis and rat PET imaging of [ 18F ]O X D -2188 and […]
In vitro characterization. Ki values for OXD-21188 and OXD-2189 vs. [3H]OXD- 2115 in PSP tissue was 29.8 nM and 13.7nM respectively.
Radiochemistry. [18F]OXD- 2188 and [18F]OXD- 2189 were radiolabeled using the same […]
radiochemical purity above 95%, molar activity of 60.1 and 58.4 GBq/μmol, respectively, and radiochemical yield of 9% (not decay- co rrected).
PET imaging. Three adul t rats (two females and o ne male) w ere used in b aseline PET imaging of [18F]OXD- 2188 and [18F]OXD- 2189 (16- 23 MBq injected, with the m ale rat being scanned twice on two consecutive d ays). […]
for both [18F]OXD- 2188 (n=2) and [18F]OXD- 2189 (n=2) with rapid clearance of radioactivity from the brain (Figure S1).
Figure S1. Structures of OXD-2188 and OXD-2189, time-activity curves and representative PET summation images […]

The structures appear in SMILES notation. Where two headings read alike, the source gives them in different places.

This is an account of results in PMC11178805, “Ligand-based design of [^18F]OXD-2314 for PET imaging in non-Alzheimer’s disease tauopathies” (Nature Communications, 2024).

T4 sequence (P10636 1-410 isoform P10636-5): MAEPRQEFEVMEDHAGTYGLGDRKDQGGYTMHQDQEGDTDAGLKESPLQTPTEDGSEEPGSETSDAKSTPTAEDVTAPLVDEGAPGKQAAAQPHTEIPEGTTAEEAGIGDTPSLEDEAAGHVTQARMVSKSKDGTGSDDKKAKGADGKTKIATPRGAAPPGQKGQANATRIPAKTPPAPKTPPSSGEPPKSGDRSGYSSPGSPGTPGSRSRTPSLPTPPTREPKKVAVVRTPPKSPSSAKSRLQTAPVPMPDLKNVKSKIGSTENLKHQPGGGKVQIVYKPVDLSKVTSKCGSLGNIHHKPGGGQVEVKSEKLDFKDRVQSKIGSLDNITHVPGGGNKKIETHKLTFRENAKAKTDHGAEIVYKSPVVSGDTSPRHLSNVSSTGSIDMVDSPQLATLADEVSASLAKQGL

`C#CCN(C)C(C)Cc1ccccc1` (stereo not drawn) [Deprenyl]: the Ki in series [1] (vs [^3H]OXD-2314, AD tissue) is 2900 nM; in series [2] (vs [^3H]OXD-2314, PSP tissue) it was 3000 nM; in series [3] (vs [^3H]OXD-2314, CBD tissue), 5000 nM.
`Nc1c(F)ccc2cnc(-n3ccc4ccncc43)cc12` [MK-6240]: the Ki in series [1] worked out at 1900 nM; in series [2] it was 5600 nM; in series [3], 1700 nM; in series [4], 1000 nM.
Consider `OCC1CCN(c2ccc(-c3cc4cc(O)ccc4[nH]3)c(F)n2)CC1` [OXD-2115], for which the Ki in series [5] is 20 nM; in series [6], 27 nM; in series [1], 14 nM; in series [2] it was 27 nM; in series [3], 30 nM; in series [4], 23 nM. In addition, the Kp,uu (unbound brain-to-plasma ratio) in series [7] (FREE, read-out: free concentration ratio brain-to-plasma) stood at 0.002. Moreover, in series [7] (TOTAL, read-out: total brain-to-plasma concentration ratio), the Kp is 0.1.
In series [6], `Oc1ccc2[nH]c(-c3ccc(N4CCC[C@@H](O)C4)nc3F)cc2c1` [OXD-2188] registered an inhibition constant (Ki) of 29.8 nM.
In series [6], `Oc1ccc2[nH]c(-c3ccc(N4CCC[C@H](O)C4)nc3F)cc2c1` [OXD-2189] returned a Ki of 13.7 nM.
On to `Oc1ccc2[nH]c(-c3ccc(N4CCC(O)CC4)nc3F)cc2c1` [OXD-2310], for which the Ki was 21 nM in series [5] and 6.6 nM in series [6].
For `Oc1ccc2[nH]c(-c3ccc(N4CCCC(F)C4)nc3F)cc2c1` (stereo not drawn) [OXD-2312], in that order: 12 nM and 5.1 nM.
In the case of `Oc1ccc2[nH]c(-c3ccc(F)nc3N3CCCC(F)C3)cc2c1` (stereo not drawn) [OXD-2313], the inhibitory constant (Ki) turned out to be 11 nM in series [5] and 4.8 nM in series [6].
For the molecule `Oc1ccc2[nH]c(-c3ccc(N4CCC(F)CC4)nc3F)cc2c1` [OXD-2317], the inhibitory constant (Ki) came out at 5.4 nM in series [5] and 5.8 nM in series [6].
Take `CO[C@H]1CCCN(c2ncc(-c3cc4cc(O)ccc4[nH]3)c(F)n2)C1` [OXD-2331]: the Ki in series [5] was found to be 7.4 nM; in series [6] it was 6.3 nM.
As for `NCCNC(=O)c1ncsc1-c1cccc(F)c1` [Ro41-1049], the Ki is more than 10000 nM in series [1] (vs [^3H]OXD-2314, AD tissue); more than 10000 nM in series [2] (vs [^3H]OXD-2314, PSP tissue); more than 10000 nM in series [3] (vs [^3H]OXD-2314, CBD tissue).
With `Fc1ccc(-c2ccc3c(c2)[nH]c2ccncc23)cn1` [Tauvid], the inhibition constant Ki was more than 10000 nM in series [1], more than 10000 nM in series [2], more than 10000 nM in series [3] and 4400 nM in series [4].
For `Oc1ccc2[nH]c(-c3ccc(N4CCC[C@@H](O)C4)nc3[18F])cc2c1` [[18F]OXD-2188], in series [8], the initial brain uptake is ~ 1.0 SUV.
Take `Oc1ccc2[nH]c(-c3ccc(N4CCC[C@H](O)C4)nc3[18F])cc2c1` [[18F]OXD-2189]: in series [8], the initial brain uptake is reported as ~ 1.0 SUV.

The term Ki denotes a dissociation constant, usually derived from enzyme kinetics or from competition with a known ligand.
